The values that follow come from patent US12129305B2, “Targeting CLPTM1L for treatment and prevention of cancer” (The Medical College of Wisconsin, Inc., priority 2018, dated 2024).

For experiment [1], the system named is ID8-luc ovarian tumor cells. Put plainly: ID8-luc orthotopic syngeneic ovarian isograft model. It is filed as in vivo, C57bl/6 mice. The settings on record: carboplatin alone, 10 mg/kg weekly for three weeks; over 35 days. Here is the method: ID8-luc model: Five-week-old C57bl/6 mice (Jackson labs strain 664) were acclimated for one week and injected intraperitoneally with […] luciferase expressing ID8 syngeneic ovarian tumor cells suspended in 200 μL of PBS under Medical College of Wisconsin animal protocol AUA6339. One week after injection, antibodies and/or chemotherapeutic agents were administered intraperitoneally at the indicated doses. Chemotherapeutic doses or vehicle were administered one day before control or therapeutic antibody doses. Imaging and analysis of luciferin radiance was done up to twice weekly on an IVIS Spectrum-CT Imaging System equipped with thermoelectrically-cooled CCD camera. Mice were monitored twice weekly for weight and signs of morbidity. Mice were euthanized after 45 days or upon signs of morbidity. Animal studies were conducted using the standards for humane treatment of animals as described in the U.S. Public Health Service Policy on Humane Care and Use of Laboratory Animals.
With disseminated peritoneal disease being the most common presentation upon recurrence of ovarian carcinoma, we utilized an orthotopic isograft model of disseminated peritoneal ovarian cancer. Human anti-CLPTM1L binding to luciferase-expressing ID8 ovarian tumor cells (ID8-luc) was detected by flow cytometry (FIG. 31A). […] Tumor load was monitored by luciferin luminescence using whole body imaging. […]

The subject of experiment [2] is Caspase-3 cleavage and Akt phosphorylation in SL3cis. Put plainly: Western blotting of SL3cis lysates for caspase cleavage and Akt phosphorylation. It is filed as cell-based, human. The settings on record: SL3cis spheroids. As for the experimental part:
(A) A2780 apoptotic killing (casp 3/7 live imaging) after 36 hour mAb treatment (scFv clones 102-4a left, 102-5a right) and 24-hour carboplatin treatment. (B) Dose-response to up to 20 μM carboplatin in resistant A2780 cells treated with either control IgG1 or 102-5, relative to 0 carboplatin controls. (C) Kinetic killing assay (live imaging) in A2780 with human anti-CLP™1L scFv and/or 10 μM carboplatin treatment. *p<0.05, **p<0.005, ***p<0.0005. (D) Western blotting and densitometry for Akt and phospho-Akt (T308) in A2780 andA2780cis. […]
Cells were lysed with 100 μL of 1× NP40 lysis buffer containing proteinase inhibitors, sheared 10 times with a 28-gauge needle, spun at 16,000×g for 30 minutes, normalized by protein concentration as determined by the Bradford method, and the supernatant boiled for 5 minutes. Twenty microliters of normalized lysate were resolved by SDS-PAGE on 10% acrylamide gels at 150 volts for 1 hour, transferred by iBlot dry transfer (Life Technologies), blocked for 2 hours with TBST 10% milk, incubated with primary antibodies at 1:1000 in TBST 5% milk at 4C overnight with rocking, washed 3×5 minutes with TBST, incubated with secondary anti-rabbit-HRP (Santa Cruz Biotechnology) or goat anti-human-HRP (Invitrogen MH1715) at 1:10,000 in TBST 5% milk for 2 hours with rocking, washed 5×10 minutes with TBST, and signal analyzed using a Biorad Chemidoc XRS. […]

For another experiment, the system named is SL3 parental xenografts. Put plainly: SL3 xenograft model, parental. It is filed as in vivo, NU/J mice. The settings on record: weekly 2.5 mg/kg cisplatin and/or 5 mg/kg 102-5; 24 days post-inoculation. Here is the method:
(§1) Four-week old female NU/J mice (2019, Jackson Laboratories) were acclimated for 1 week before injection of 0.5×10^6 parental SL3 or 1×10^6 cisplatin-resistant SL3-cis cells subcutaneously into the flank in 200 μL PBS. Tumors were measured with calipers and volumes were calculated by ½ (W×W×L). After tumors had grown to an average of 100 mm^3, mice were separated into groups of 5 mice, each group with 100 mm^3 average tumor sizes. Mice were treated weekly with intraperitoneal doses of PBS control, cisplatin 2.5 mg/kg, and/or 102-5 5 mg/kg in 200 μL of PBS at room temperature beginning on day 6 post-inoculation. Cisplatin treatments were administered 24 hours following antibody treatment. Tumor volume was measured at least weekly. Animal health was monitored daily and animal weights measured at least weekly. All procedures were reviewed and approved by MCW IACUC committee #2 under AUA6339.
(§2) J/NU mice xenografted with SL3 parental or SL3-cis platinum resistant cells were treated weekly with control vehicles, 2.5 mg/kg cisplatin, and/or 5 mg/kg 102-5 anti-CLPTM1L. The effects of cisplatin and those of 102-5 on cisplatin treatment were investigated in this model rather than those of carboplatin since the SL3cis line was developed specifically as a cisplatin resistant line.

The test system of experiment [3] is SL3-cis platinum resistant xenografts. The experiment can be described thus: SL3 xenograft model, cisplatin resistant. It is filed as in vivo, NU/J mice. Conditions: weekly 2.5 mg/kg cisplatin and/or 5 mg/kg 102-5; 24 days post-inoculation. As for the experimental part: as §1, §2

The compound `N.N.O=C([O-])C1(C(=O)[O-])CCC1.[Pt+2]` [carboplatin, reference compound] registered a tumor load in experiment [1] of 1.23 fold.

For the compound `N.N.[Cl][Pt][Cl]` [cisplatin, reference compound], the “Akt phosphorylation at threonine 308” value in experiment [2] was “induced by cisplatin treatment”. Further, the Caspase-3 cleavage entry in experiment [2] (16 days of growth) is listed as “Caspase-3 cleavage was induced”. Moreover, in the experiment with SL3 parental xenografts, the “tumor growth and volumes” value is “significantly inhibited”. The tumor growth result in experiment [3] is reported as “significantly inhibited tumor growth only in combination therapy with 102-5 anti-CLPTM1L”.
